Usually EC50 stands for the concentration that produces a half-maximal response.

One assay concerns the target T1, human GPR40 (Homo sapiens, UniProt O14842, R211H).
T1 construct: expressed in transfected cells
In words: Measurement of GPR40 agonist action (FLIPR, intracellular calcium). Format: cell-based. As to conditions: CHO cell strain expressing human GPR40; changes in fluorescence intensity after 1 minute of the measurement. From the text:
Test Method 1: Measurement of GPR40 Agonist Action […]
i) Cloning of Human GPR40
Complete length sequence of GPR40 was obtained by carrying out a PCR method in accordance with the procedure shown below using a human genomic DNA (Clontech) as the template.
An oligonucleotide consisting of the nucleotide sequence represented by SEQ ID NO:1 was used as the forward primer, and an oligonucleotide consisting of the nucleotide sequence represented by SEQ ID NO:2 as the reverse primer. In this connection, a nucleotide sequence comprising a XbaI recognition region is added to the respective 5′-termini of the aforementioned forward primer and reverse primer. PCR was carried out in the presence of 5% dimethyl sulfoxide (DMSO) using a Taq DNA polymerase (Ex Taq DNA polymerase; Takara Bio), by repeating 30 times of a cycle consisting of 94° C. (15 seconds)/55° C. (30 seconds)/72° C. (1 minute). As a result, a DNA fragment of about 0.9 kbp was amplified. This DNA fragment was digested with XbaI and then inserted into the XbaI site of a plasmid pEF-BOS-dhfr (Nucleic acids Research, 18, 5322, 1990), thereby obtaining a plasmid pEF-BOS-dhfr-GPR40.
Nucleotide sequence of the GPR40 gene in the pEF-BOS-dhfr-GPR40 was determined by the dideoxy terminator method using a DNA sequencer (ABI 377 DNA Sequencer, Applied Biosystems). Nucleotide sequence of the GPR40 gene was as the nucleotide sequence represented by SEQ ID NO:3. The nucleotide sequence represented by SEQ ID NO:3 has an open reading frame (ORF) of 903 bases, and the amino acid sequence deduced from this ORF (300 amino acids) was as the amino acid sequence represented by SEQ ID NO:4. […]
ii) Preparation of GPR40 Stable Expression Cell
As the cell for expressing GPR protein, CHO dhfr cell (a dihydrofolate reductase (dhfr)-deficient CHO cell) was used. Also, as the plasmid for expressing GPR40 protein, the plasmid pEF-BOS-dhfr-GPR40 obtained in the aforementioned i) was used. The CHO dhfr cell was inoculated into αMEM medium containing 10% fetal calf serum (FCS) using a 6 well plate (Asahi Techno Glass) and cultured overnight to an 80 to 90% confluence, and then 2 μg per well of the plasmid pEF-BOS-dhfr-GPR40 was gene-transferred using a transfection reagent (Lipofectamine 2000; Invitrogen). After 24 hours of culturing from the gene transfer, the cells were diluted and inoculated again. […] After 20 days of culturing, the thus formed colonies of cells were individually recovered and cultured to obtain CHO cells stably expressing GPR40. From these, cells having high reactivity for intrinsic ligands oleic acid and linoleic acid were selected. […]
iii) Measurement of GPR40 Agonist Action
This test was measured by FLIPR (registered trademark, Molecular Device) using a change in intracellular calcium concentration as the index. The test method is shown in the following.
A CHO cell strain in which human GPR40 was expressed was inoculated into a 384 well black plate (Becton Dickinson) in 6×10^3 cells per well portions and cultured overnight in a CO2 incubator.
Using Calcium-3 assay kit (Molecular Device), one bottle of the phosphorescent pigment was dissolved in 10 ml of HBSS-HBEPES buffer (pH 7.4, 1×HBSS, 20 mM HEPES, Invitrogen). A 35.68 mg of probenecid (Sigma) was dissolved in 250 μl of 1M NaOH and adjusted by adding 250 μl of the HBSS-HEPES buffer. A phosphorescent pigment solution was prepared by mixing 16 ml of HBSS-HEPES buffer, 640 μl of the phosphorescent pigment and 32 μl of probenecid per one plate. The medium was discarded from the plate, and the phosphorescent pigment solution was dispensed in 40 μl per well portions and then incubated at room temperature for 2 hours. Each compound to be tested was dissolved in DMSO and then diluted with HBSS-HEPES buffer and dispensed in 10 μl portions into the plate, thereby starting the reaction, and changes in the intracellular calcium concentration were measured by FLIPR. […]

In assay [1] the test system is blood glucose after glucose loading. In words: Normal mice single oral glucose tolerance test. Format: in vivo. As to conditions: Mus musculus, 0.5 h, male ICR mice, 10 mg/kg orally 30 minutes before glucose loading (2 g/kg), 30 minutes after glucose loading, based on control group, read-out: Blood glucose lowering ratio. The method, then:
Test Method 3: Normal Mice Single Oral Glucose Tolerance Test
This test examined on the blood glucose suppression action of compounds to be tested after glucose loading, using normal mice. The test method is shown below.
Male ICR mice (6 weeks of age) after 1 week of preliminary rearing were subjected to overnight fasting and used as the animals to be tested. Each compound to be tested was made into a 0.5% methyl cellulose suspension and orally administered at a dose of 10 mg/kg 30 minutes before the glucose loading (2 g/kg). Administration of 0.5% methyl cellulose was used in the control group. Blood glucose lowering ratio (%) after 30 minutes of glucose loading was calculated based on the control group.

In the next assay the test system is MIN6 cell. In words: Insulin secretion-promoting action using MIN6 cell. As to conditions: relative activity value at 1 μM of each compound, based on 100% control (DMSO), 2 hours incubation. The arrangement: species or system mouse. The method, then: Test Method 2: Insulin Secretion-Promoting Action Using MIN6 Cell
This rest examined insulin acceleration action of compounds to be tested using a mouse pancreas β cell strain, MIN6 cell. The test method is shown in the following.
The MIN6 cell was dispensed in 5×10^4 cells/well (200 μl) portions into a 96 well plate. DMEM (25 mM glucose) containing 10% FBS, 55 μM 2-mercaptoethanol, 100 U/ml penicillin and 100 μg/ml streptomycin was used as the medium. The medium was discarded 2 days thereafter using an aspirator, followed by washing once with 200 μl of KRB-HEPES (116 mM NaCl, 4.7 mM KCl, 1.2 mM KH2PO4, 1.2 mM MgSO4, 0.25 mM CaCl2, 25 mM NaHCO3, 0.005% FFA Free BSA, 24 mM HEPES (pH 7.4)) containing 2.8 mM glucose, which was warmed up to 37° C., and subsequent incubation again at 37° C. for 1 hour by adding 200 μl of the same buffer. After discarding the above-mentioned buffer using an aspirator and again washing with the buffer (200 μl), a predetermined concentration of a compound to be tested was added to the KRB-HEPES containing 2.8 mM or 22.4 mM glucose and added to respective wells in 100 μl portions and incubated at 37° C. for 2 hours. The above-mentioned samples were fractioned and diluted 100 times, and the insulin concentration was determined using an insulin RIA kit (Amersham RI). The activity value was shown by a relative activity value (%) at the time of 1 μM of each compound, based on 100% control (DMSO).

T1 sequence (O14842 whole entry R211H): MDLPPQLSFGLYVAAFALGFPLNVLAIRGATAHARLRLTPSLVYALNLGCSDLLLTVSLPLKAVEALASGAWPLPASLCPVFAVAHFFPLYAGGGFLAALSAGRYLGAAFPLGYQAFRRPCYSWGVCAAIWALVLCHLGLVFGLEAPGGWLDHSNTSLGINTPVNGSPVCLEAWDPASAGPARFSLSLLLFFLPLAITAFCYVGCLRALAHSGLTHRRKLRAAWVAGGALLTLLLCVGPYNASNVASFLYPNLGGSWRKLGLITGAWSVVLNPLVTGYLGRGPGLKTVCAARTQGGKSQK

In the case of `Cc1cccc(C)c1-c1cccc(COc2ccc(Cn3oc(=O)[nH]c3=O)cn2)c1` [Example 99], the EC50 at human GPR40 was 0.45 µM. Take `Cc1cc(OCCC(C)(C)O)cc(C)c1-c1cccc(COc2ccc(Cn3oc(=O)[nH]c3=O)cc2)c1C` [Example 166]: at human GPR40, the concentration giving a half-maximal response (EC50) is 0.22 µM. In addition, the inhibition in vivo at 10 mg/kg in assay [1] came out at 35%. Consider `O=c1[nH]c(=O)n(Cc2ccc(OCc3cccc(-c4cccnc4)c3)cc2)o1` [Example 33], for which the EC50 at human GPR40 turned out to be 0.64 µM. On to `COc1cc(C)c(-c2cccc(COc3ccc(Cn4oc(=O)[nH]c4=O)cc3)c2)c(C)c1` [Example 47], for which the 50% effective concentration (EC50) on human GPR40 was found to be 0.42 µM. Further, in assay [1], the inhibition in vivo at 10 mg/kg came to 36%. In the case of `O=c1[nH]c(=O)n(Cc2ccc(OCc3cccc(-c4c(Cl)cccc4Cl)c3)cc2)o1` [Example 60], on human GPR40, the concentration for a half-maximal effect (EC50) was 0.46 µM. In addition, the inhibition in vivo at 10 mg/kg in assay [1] is 35%. For `Cc1cc(OS(C)(=O)=O)cc(C)c1-c1cccc(COc2ccc(Cn3oc(=O)[nH]c3=O)cc2)c1` [Example 119], the 50% effective concentration (EC50) at human GPR40 was 0.22 µM. In addition, in assay [1], the inhibition in vivo at 10 mg/kg was found to be 22%.

For `Cc1cccc(C)c1-c1cccc(COc2ccc(Cn3oc(=O)[n-]c3=O)cc2)c1.[Na+]` [Example 39], at human GPR40, the EC50 amounted to 0.26 µM. In addition, the Insulin secretion-accelerating action in the assay with MIN6 cell worked out at 192%. In addition, the inhibition in vivo at 10 mg/kg in assay [1] was 26%. `Cc1cccc(C)c1-c1cncc(COc2ccc(Cn3oc(=O)[nH]c3=O)cc2)c1` [Example 82]: the half-maximal effective concentration (EC50) at human GPR40 was found to be 0.93 µM. With `O=c1[nH]c(=O)n(Cc2ccc(OCc3cccc(Br)c3)cc2)o1` [Example 9, 2-{4-[(3-bromobenzyl)oxy]benzyl}-1,2,4-oxadiazolidine-3,5-dione], the concentration giving a half-maximal response (EC50) on human GPR40 turned out to be 0.8 µM. For `CCOCCOc1cc(C)c(-c2cccc(COc3ccc(Cn4oc(=O)[n-]c4=O)cc3)c2)c(C)c1.[Na+]` [Example 44], at human GPR40, the EC50 came to 0.67 µM. This compound gave an Insulin secretion-accelerating action in the assay on MIN6 cell of 287%. In addition, the inhibition in vivo at 10 mg/kg in assay [1] was 21%. For `Cc1cccc(C)c1-c1cccc(C(=O)Nc2ccc(Cn3oc(=O)[nH]c3=O)cc2)c1` [Example 16, sodium 2-(4-{[(2′,6′-dimethylbiphenyl-3-yl)carbonyl]amino}benzyl)-3,5-dioxo-1,2,4-oxadiazolidin-4-ide], the EC50 at human GPR40 was 0.45 µM. Take `CC(=O)NCCCOc1ccc(-c2cccc(COc3ccc(Cn4oc(=O)[nH]c4=O)cc3)c2C)c(C)c1` [Example 189]: at human GPR40, the EC50 worked out at 0.059 µM. For the same compound, the inhibition in vivo at 10 mg/kg in assay [1] worked out at 30%. `N#Cc1ccc(-c2cccc(COc3ccc(Cn4oc(=O)[nH]c4=O)cc3)c2)cc1` [Example 34] displayed an Insulin secretion-accelerating action with MIN6 cell of 169%. Take `COc1cccc(OC)c1-c1cccc(COc2ccc(Cn3oc(=O)[nH]c3=O)cc2)c1` [Example 56]: the EC50 on human GPR40 came out at 0.76 µM. In addition, in assay [1], the inhibition in vivo at 10 mg/kg was 31%.

In the case of `Cc1cc(OCC[C@H](C)O)cc(C)c1-c1cccc(COc2ccc(Cn3oc(=O)[nH]c3=O)cc2)c1C` [Example 193], the half-maximal effective concentration (EC50) at human GPR40 came out at 0.52 µM. Besides, the inhibition in vivo at 10 mg/kg in assay [1] is 46%. On to `Cc1cc(OCCO)ccc1-c1cccc(COc2ccc(Cn3oc(=O)[nH]c3=O)cc2)c1` [Example 14, sodium 2-(4-{[4′-(2-hydroxyethoxy)-2′-methylbiphenyl-3-yl]methoxy}benzyl)-3,5-dioxo-1,2,4-oxadiazolidin-4-ide], for which the EC50 on human GPR40 turned out to be 0.39 µM. The inhibition in vivo at 10 mg/kg in assay [1] is 34%. For the compound `Cc1cccc(C)c1-c1cccc(CNc2ccc(Cn3oc(=O)[nH]c3=O)cc2)c1` [Example 406], the EC50 on human GPR40 came out at 0.12 µM. In addition, in assay [1], the inhibition in vivo at 10 mg/kg came out at 42%. With `Cc1cc(OCC[C@H](C)O)ccc1-c1cccc(COc2ccc(Cn3oc(=O)[nH]c3=O)cc2)c1C` [Example 173], the concentration for a half-maximal effect (EC50) at human GPR40 was found to be 0.66 µM. Besides, the inhibition in vivo at 10 mg/kg in assay [1] came out at 21%. `COc1cc(F)c(-c2cccc(COc3ccc(Cn4oc(=O)[n-]c4=O)cc3)c2)c(F)c1.[Na+]` [Example 4, sodium 2-{4-[(2′,6′-difluoro-4′-methoxybiphenyl-3-yl)methoxy]benzyl}-3,5-dioxo-1,2,4-oxadiazolidin-4-ide]: the EC50 at human GPR40 is 0.35 µM. In addition, in the assay with MIN6 cell, the Insulin secretion-accelerating action was 177%. Take `Cc1cc(C(=O)NC2CCOCC2)ccc1-c1cccc(COc2ccc(Cn3oc(=O)[nH]c3=O)cc2)c1` [Example 117]: the 50% effective concentration (EC50) at human GPR40 turned out to be 0.29 µM. Further, the inhibition in vivo at 10 mg/kg in assay [1] turned out to be 21%. For the compound `O=c1[n-]c(=O)n(Cc2ccc(OCc3cccc(Oc4ccccc4)c3)cc2)o1.[Na+]` [Example 38], the EC50 at human GPR40 turned out to be 0.65 µM. Besides, the Insulin secretion-accelerating action in the assay with MIN6 cell worked out at 228%. `O=c1[nH]c(=O)n(Cc2ccc(OCc3cccc(-c4ccc(OCCO)cc4)c3)cc2)o1` [Example 8]: at human GPR40, the EC50 was 0.031 µM.

The record behind these values is patent US7968552B2, “Oxadiazolidinedione compound” (Astellas Pharma Inc., priority 2006, dated 2011).
